Assay results taken from patent US7067486B2, “Acetylcholinesterase-derived peptides and uses thereof” (priority 1999, dated 2006).
Marks after values point to notes of the source that are not given here. Where no end group is shown, it is not given here.

Columns and labels:
[1] = system: FVB/N adult mice; test: Biochemical and physiological male fertility correlates after ARP injection; type: in vivo, mouse
Source text: Culture Analyses: Twenty-four hr liquid cultures served for cytochemical staining, in situ hybridization, and cell proliferation assay by 5-bromo-2′-deoxy-Uridine (BrdU) incorporation [Grisaru et al. (1999b) id ibid.]. Twenty-eight day liquid cultures were sampled every 6–8 days for viable cell counting (using trypan blue dye exclusion), cell phenotyping (CD34^+, CD33^+ and CD41^+ quantification using flow cytometry, with CD34-PE, CD33-FITC (Immunotech/Coulter, Hialeah, Fla.), CD41-FITC (Immunoquality Products, Groningen, Netherlands) and CD45-FITC monoclonal antibodies), and growth of progenitor colony (granulocyte-macrophage and megakaryocytic), using previously described techniques (Pick et al. (1998) id ibid.). Cytochemical Staining: Staining of AChE activity was essentially as detailed elsewhere [Grisaru et al. (1999b) id ibid], on non-fixed liquid cultures following 300×g centrifugation on collagen-coated cover slips placed on the bottom of the culture well, in the presence of 10^−5 M iso-OMPA (ISO) or BW284C51 (BW), selective inhibitors of BuChE and AChE, respectively [see also Keymer et al.(1999) Eur. J. Neurosci. 11, 1049–57]. Nuclear staining w with 4′,6-diamidino-2- phenylindole [DAPI, see e.g., Peterson et al. (1999) Genetics 152, 427–439]. Animals and Tissue Collection: Male FVB/N mice (2–6 months old) were sacrificed 24 hr following 4 successive days of a forced swim session as detailed [Kaufer et al. (1998) id ibid.], or a single injection of ARP (34 nmol/kg weight), or phosphate buffer (PB) for control. ARP, a 26 amino acid residue peptide synthesized according to the C-terminal sequence of human AChE-R [Grisaru et al. (1999b) id ibid.] was HPLC purified and mass-spectrometry analysed for purity. Control naïve mice and hAChE-R transgenics were sacrificed with no prior treatment. Blood samples were allowed to clot 1 hr at room temperature and overnight at 4° C., followed by centrifugation and serum collection. Testes and seminal vesicles were excised and weighed, fixed in 4% paraformaldehyde or Bouin's fixative for histological staining or kept at −70° C. for protein extraction. Sperm cells were collected from one cauda epididymis shredded in 1 ml saline. Evaluation of Serum Corticosterone Levels: concentrations were determined by radioimmunoassay.
Epididymal sperm motility was assessed by visually determining percent motile sperm. Sperm concentration was measured using the Makler chamber (company, city, state).
Detection of the AChE core protein and/or its variant C-terminal peptides was performed on 7 μm thick paraffin embedded testis sections with either anti-ASP (C-16; Santa Cruz Biotechnology, Santa Cruz, Calif.) or anti-ARP polyclonal antibodies [Sternfeld et al. (2000) id ibid.]. PCNA was detected using a dedicated staining kit (Zymed Laboratories, San-Francisco, Calif.); nuclear staining and counterstaining was with DAPI and hematoxylin, respectively (Sigma, St. Louis Mo.).
To determine the in vivo capacity of ARP to affect different biochemical and physiological male fertility properties, the effect of injection of ARP or chronic expression of AChE-R (AChE-R transgenic mice) on different parameters was examined.

[2] = system: CD34^+ cells; test: Viable cell expansion in CD34+ liquid cultures (trypan blue exclusion); type: cell-based, human; conditions: day 14; seeded at 50,000 cells/well; ARP 2 nM, cortisol 1.2 μM, ASP 2 nM, SCF 50 ng/ml, AS1 20 pM, PBAN 2 nM
Source text: Cell Source: UCB was collected, following informed consent of the parents and with the approval of the Sourasky Medical Center Ethics Committee, as previously described [Grisaru et al. (1999a) Am. J. Obstet. Gynecol, 180, 1240–1243]. Following 1:1 (v/v) dilution in Iscove's modified Dulbecco medium (IMDM, Beit Haemek, Israel), mononuclear cells were separated using 3% gelatin (Difco, Detroit, Mich.) and Ficoll-Hypaque gradients (<1.077 g/ml; Pharmacia, Uppsala, Sweden) [Pick et al. (1998) Br. J. Haematol. 103, 639–50]. CD34^+ cells were enriched using CD34 immunoglobulin-coated magnetic beads (CD34 progenitor cell selection system, Dynal, Norway).CD34^+ cells analysis was performed by flow cytometry (Becton Dickinson Immunocytochemistry System Inc., San Jose, Calif.), using CD34-PE (Becton Dickinson Immunocytometry System, Inc.) and CD45-FITC (Dako, Glostrup, Denmark) monoclonal antibodies. […] Liquid Cultures: UCB CD34^+ cells were set for liquid cultures at a concentration of 10^5/mL in IMDM, containing 10% autologous plasma, 2 mM L-glutamine (Sigma Chemical Co., St Louis, Mo.), penicillin ([…]), streptomycin ([…]), amphotericin B (2×10^−5 M) (Sigma Chemical Co.), and heparin (20 IU/mL, Gibco, Grand Island, N.Y.), all in a fully humidified atmosphere at 37° C. and 5% CO2. The following elements were added where noted: • 1. Hematopoietic growth factors: Interleukin 3 (IL3, 5 ng/mL, Immunex, Seattle, Wash.), interleukin 6 (IL6, 50 ng/mL, R&D Systems, Minneapolis, Minn.), TPO (1 ng/mL, R&D Systems), stem cell factor (SCF, 10 ng/mL, R&D Systems), FLT-3 ligand (FLT3, 50 ng/mL, R&D Systems), granulocyte-macrophage colony stimulating factor (GM-CSF, 50 ng/mL, Biogenesis Ltd, Bournemouth, UK) and combinations of the above, for 24 hr to 28 days (supplemented every 4 days). • 2. Endothlial Growth factors: Epidermal growth factor (EGF 10 ng/ml, Sigma Chemical Co.), basic Fibroblast growth factor (bFGF 20 ng/ml, Sigma Chemical Co.) incubated in a serum free medium (SFM) for 48 hr. • 3. […] AChE C-terminal peptides: The following C-terminal peptides of the AChE synaptic (ASP, also denoted SEQ ID: No. 2) and readthrough (ARP, also denoted SEQ ID: No. 1) isoforms were synthesized using a 433A peptide synthesizer (PE Applied Biosystems, Inc., Norwalk, Conn.). • ASP: 1-[…]-40, also denoted as SEQ ID: No. 2. • ARP: 1-[…]-26, also denoted as SEQ ID: No. 1. […]

[3] = system: CD34^+ cells; test: Cell phenotyping of CD34+ liquid cultures by flow cytometry (CD34, CD33, CD15, CD41); type: cell-based, human; conditions: for MK (CD41^+) fold expansion / Myeloid (CD33^+) fold expansion: 2-week primary cultures of CD34+ cells from 1 to 3 individuals, ± SEM where noted
Source text: Cell Source: UCB was collected, following informed consent of the parents and with the approval of the Sourasky Medical Center Ethics Committee, as previously described [Grisaru et al. (1999a) Am. J. Obstet. Gynecol, 180, 1240–1243]. Following 1:1 (v/v) dilution in Iscove's modified Dulbecco medium (IMDM, Beit Haemek, Israel), mononuclear cells were separated using 3% gelatin (Difco, Detroit, Mich.) and Ficoll-Hypaque gradients (<1.077 g/ml; Pharmacia, Uppsala, Sweden) [Pick et al. (1998) Br. J. Haematol. 103, 639–50]. CD34^+ cells were enriched using CD34 immunoglobulin-coated magnetic beads (CD34 progenitor cell selection system, Dynal, Norway).CD34^+ cells analysis was performed by flow cytometry (Becton Dickinson Immunocytochemistry System Inc., San Jose, Calif.), using CD34-PE (Becton Dickinson Immunocytometry System, Inc.) and CD45-FITC (Dako, Glostrup, Denmark) monoclonal antibodies. […] Liquid Cultures: UCB CD34^+ cells were set for liquid cultures at a concentration of 10^5/mL in IMDM, containing 10% autologous plasma, 2 mM L-glutamine (Sigma Chemical Co., St Louis, Mo.), penicillin ([…]), streptomycin ([…]), amphotericin B (2×10^−5 M) (Sigma Chemical Co.), and heparin (20 IU/mL, Gibco, Grand Island, N.Y.), all in a fully humidified atmosphere at 37° C. and 5% CO2. The following elements were added where noted: • 1. […] Endothlial Growth factors: Epidermal growth factor (EGF 10 ng/ml, Sigma Chemical Co.), basic Fibroblast growth factor (bFGF 20 ng/ml, Sigma Chemical Co.) incubated in a serum free medium (SFM) for 48 hr. • 3. Stress mimicking conditions: Hydrocortisone sodium succinate (Abic Ltd., Netanya, Israel) at concentrations equivalent to normal, intermediate and stress serum cortisol levels (0.1, 0.6 and 1.2 μM, respectively (De Vroede et al., Arch. Des. […] Antisense oligonucleotides: 3′-terminal 2′-O-Methylated 15- and 20-mer oligodeoxynucleotides in the antisense (AS) orientation, targeted against the common sequence domain in human AChEmRNA and BuChE mRNA, as control, […], as detailed elsewhere [Grisaru et al. (1999b) Mol. Cell. Biol. 19, 788–95]. • 5. AChE C-terminal peptides: The following C-terminal peptides of the AChE synaptic (ASP, also denoted SEQ ID: No. 2) and readthrough (ARP, also denoted SEQ ID: No. 1) isoforms were synthesized using a 433A peptide synthesizer (PE Applied Biosystems, Inc., Norwalk, Conn.). • ASP: 1-[…]-40, also denoted as SEQ ID: No. 2. • ARP: 1-[…]-26, also denoted as SEQ ID: No. 1.
Culture Analyses: Twenty-four hr liquid cultures served for cytochemical staining, in situ hybridization, and cell proliferation assay by 5-bromo-2′-deoxy-Uridine (BrdU) incorporation [Grisaru et al. (1999b) id ibid.]. Twenty-eight day liquid cultures were sampled every 6–8 days for viable cell counting (using trypan blue dye exclusion), cell phenotyping (CD34^+, CD33^+ and CD41^+ quantification using flow cytometry, with CD34-PE, CD33-FITC (Immunotech/Coulter, Hialeah, Fla.), CD41-FITC (Immunoquality Products, Groningen, Netherlands) and CD45-FITC monoclonal antibodies), and growth of progenitor colony (granulocyte-macrophage and megakaryocytic), using previously described techniques (Pick et al. (1998) id ibid.). […] 11, 1049–57]. Nuclear staining w with 4′,6-diamidino-2- phenylindole [DAPI, see e.g., Peterson et al. (1999) Genetics 152, 427–439].

[4] = 24-hr post i.p. injection of 34 nmol/Kg ARP, FVB/N adult male mice
[5] = day 14, seeded at 50,000 cells/well, ARP 2 nM, cortisol 1.2 μM, ASP 2 nM, SCF 50 ng/ml, AS1 20 pM, PBAN 2 nM

GMQGPAGSGWEEGSGSPPGVTPLFSP [ARP]
seminal gland wt. [1, 4]: 10.79 ± 1.08 mg/gr weight | sperm counts [1, 4]: 5.3 ± 1.2 cells/epididimis × 10^−6 | sperm, motile [1, 4]: 5 ± 1.7 % of total sperm cells | sperm cell motility ([1]; ARP injected mice): significantly reduced motility | sperm counts compared with untreated FVB/N mice ([1]; ARP-injected mice): lower

SCF
Total viable cells [2]: 118.0 cells per culture × 10^−3 | MK (CD41^+) fold expansion [3]: 0.30 ± 0.21 fold | Myeloid (CD33^+) fold expansion [3]: 3.90 fold | CD33^+ (early myeloids) [3, 5]: 69.0 cells per culture × 10^−3 | CD33^+ and CD15^+ (total myeloids) [3, 5]: 72.0 cells per culture × 10^−3 | CD34^+ (early progenitors) [3, 5]: 6.3 cells per culture × 10^−3 | CD41^+ (megakaryocytes) [3, 5]: 2.6^b cells per culture × 10^−3

TPO
MK (CD41^+) fold expansion [3]: 3.93 ± 3.56 fold | Myeloid (CD33^+) fold expansion [3]: 3.51 ± 2.23 fold
